Test results: patent US20250186470A1, “Compositions and Methods Using Lactulose for Treating Disease” (THE UNIVERSITY OF CHICAGO, priority 2023, published 2025)

Tests used:
[1] = system: B. longum; experiment: Ex-germ-free mice colonized with 8-11 strain consortia containing B. longum +/- lactulose; type: in vivo, mouse
From the text: (A) Schematic indicating timing of consortia gavage, lactulose administration (20 g/L in drinking water), and stool collection in ex-germ-free mice. […] (B) 16S metagenomics from stool samples without (left facet within each consortia) and with (right facet within each consortia) lactulose exposure is shown as relative abundance. Concentrations of acetate and taurocholic acid are shown in units of mM below each paired sample. (C) Bifidobacteria relative abundance, acetate concentration (mM), and taurocholic acid concentrations (μg/ml) were measured and compared between mice that were and were not exposed to lactulose. […] DNA was extracted using the QIAamp PowerFecal Pro DNA kit (Qiagen). Prior to extraction, samples were subjected to mechanical disruption using a bead beating method. Briefly, samples were suspended in a bead tube (Qiagen) along with lysis buffer and loaded on a bead mill homogenizer (Fisherbrand). Samples were then centrifuged, and supernatant was resuspended in a reagent that effectively removed inhibitors. DNA was then purified routinely using a spin column filter membrane and quantified using Qubit. […] Short chain fatty acids (SCFA, i.e. butyrate, acetate, propionate, and succinate) were derivatized with pentafluorobenzyl bromide (PFBBr) and analyzed via negative ion collision induced-gas chromatography-mass spectrometry ([-]CI-GC-MS, Agilent 8890) 92. Eight bile acids (BA, i.e. primary: cholic acid; conjugated primary: glycocholic acid, taurocholic acid; secondary: deoxycholic acid, lithocholic acid [LCA], isodeoxycholic acid; modified secondary: alloisolithocholic acid [alloisoLCA] and 3-oxolithocholic acid [3-oxoLCA]) were quantified (μg/mL) by negative mode liquid chromatography-electrospray ionization-quadrupole time-of-flight-MS ([-]LC-ESI-QTOF-MS, Agilent 6546). […] For germ-free studies, 6-18 week-old male and female C57BL/6 mice were used. Mice were initially obtained from The Jackson Laboratory and subsequently bred and raised in a germ-free isolator. […]

[2] = system: SBP; experiment: Spontaneous bacterial peritonitis (SBP) in liver disease patients paired with fecal samples, logistic regression; type: in vivo, human
From the text: FIGS. 12A-12E: Bifidobacteria expansion and associated metabolite production are associated with decreased incidence of spontaneous bacterial peritonitis (SBP). (A) Flow diagram depicting number of samples and number of patients that were filtered out at each step of analysis for SBP. (B) Taxonomic relative abundance by shotgun metagenomics of stool samples paired to ascites samples is plotted in order of decreasing Bifidobacteria abundance from left to right. Underneath each stool sample is the clinical diagnosis associated with an ascites sample (SBP (red) or not SBP (green)). (C) Volcano plot of normalized metabolite concentrations. P-values were calculated using a two-tailed Wilcoxon rank sum test and are corrected for multiple comparisons using the Benjamini-Hochberg procedure. Values with log 2 fold-change >1 (corresponding to a 2-fold change with a p-value <0.05) were considered significant. (D and E) Quantitative levels for butyrate, propionate, lithocholic acid, and alloisolithocholic acid were compared from samples associated and not associated with SBP. Units for SCFA are mM, and units for BA derivatives are in μg/mL. Each point represents a single sample. Median and interquartile range are indicated by the horizontal line and box, respectively. […] Statistical comparisons between individual groups were analyzed using a two-tailed Wilcoxon rank sum test. […]

[3] = 90-day survival of liver disease patients, Kaplan-Meier and Cox proportional hazards; type: in vivo, human; details: Table S10, covariate Lactulose, Bifido >10%, model also has MELD-Na, age and sex at enrollment
Experimental: FIGS. 5A-5H: Bifidobacteria expansion and associated metabolite production are associated with decreased incidence of systemic infection and prolonged survival. (A) A Linear discriminant analysis effect size (LEfSe) showing the significant (Wilcoxon rank-sum, two-tailed, p≤0.05) effect sizes of taxa between groups. (B) Acetate (mM) and taurocholic acid (μg/mL) were quantified, and (C) conversion from conjugated-primary BA to primary BA and then to secondary BAs was tested for each sample. Each point represents a molar ratio for an individual sample. (A-C) Sample size: n=101 (no SBP), n=21 (SBP)). (D) LEfSe showing the significant (Wilcoxon rank-sum, two-tailed, p≤0.05) effect sizes of taxa between groups. (E) Acetate (mM) and taurocholic acid (μg/mL) were quantified, and (F) conversion from conjugated-primary BA to primary BA and then to secondary BAs was tested for each sample. Each point represents a molar ratio for an individual sample. (D-F) Sample size: n=227 (no bacteremia), n=19 (bacteremia)). (B,C,E, and F) Each point represents a single sample. Median and interquartile range are indicated by the horizontal line and box, respectively. The lower vertical line depicts Q1-1.5*IQR and the upper vertical line depicts Q3+1.5*IQR. Statistical comparisons between individual groups were analyzed using a two-tailed Wilcoxon rank sum test. […]

SMILES: OC[C@H]1O[C@@H](O[C@@H]2[C@@H](CO)OC(O)(CO)[C@H]2O)[C@H](O)[C@@H](O)[C@H]1O (mixture of isomers) [Lactulose, lactulose]
- Relative abundance of B. longum ([1]; all consortia (CON.1-3), 20 g/L lactulose in drinking water): increased
- Fecal taurocholic acid concentrations ([1]; all three consortia, 20 g/L lactulose): reduced
- Fecal acetate concentrations ([1]; consortia, 20 g/L lactulose): only modestly increased
- Samples with lactulose exposure among sbp ([2]; N = 21): (76%)
- Samples with lactulose exposure among no sbp ([2]; N = 101): (79%)
- Estimate (Cox proportional hazards coefficient) [3]: −0.87
- Exp (coef) [3]: 0.42
